Drawing on PubChem BioAssay (NCI), this text covers GI50 and TGI for seven molecules.

Among the test systems are SF-295 CNS; 786-0 renal; MDA-MB-435; OVCAR-8 ovarian; NCI-H522 lung; MOLT-4 leukemia; SR leukemia; UACC-257 melanoma; SNB-75 CNS; COLO 205 colon.
What all share (experiment): NCI-60 cell line screen, 48 h

Several values for one entry are separate records, joined by “and”; a condition that tells them apart may be missing. Equal entries are not always repeated.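 These data come from cells grown in 96-well plates and exposed to compound for 48 hours at five concentrations. GI50: concentration for 50% inhibition of growth. TGI denotes the concentration required for complete inhibition of growth.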

With `CCN(CC)CCNc1ccc(CO)c2sc3ccccc3c(=O)c12`, the GI50 is 2.98 µM and 5.31 µM with SF-295 CNS; 4.99 µM and 19.4 µM with 786-0 renal; 2.49 µM with MDA-MB-435; 2.42 µM with OVCAR-8 ovarian; 1.48 µM and 8.14 µM in the assay on NCI-H522 lung; 3.14 µM and 3.32 µM in the assay with MOLT-4 leukemia. For the same molecule, the GI50 in the assay with SR leukemia was 2.29 µM; in the assay with UACC-257 melanoma it was 1.7 µM and 3.79 µM; with SNB-75 CNS, 4.27 µM and 14.4 µM and 2.33 µM. The TGI was 21.1 µM [middle of 4 runs] in the assay on SF-295 CNS; 18.8 µM and 52.1 µM in the assay on 786-0 renal; 7.56 µM and 11.3 µM with MDA-MB-435; 14 µM and 17.8 µM in the assay with OVCAR-8 ovarian; 14.1 µM [middle of 4 runs] in the assay on MOLT-4 leukemia; 17.7 µM and 29.1 µM and 9.2 µM in the assay on SNB-75 CNS. Besides, in the assay with COLO 205 colon, the TGI was 3 µM and 13.9 µM and 18 µM.

For the molecule `Cc1cc2cc(Oc3ccnc(Nc4cccc(CS(=O)(=O)NCCN(C)C)c4)n3)ccc2[nH]1`, the GI50 in the assay on SF-295 CNS was 8.04 µM; in the assay with 786-0 renal it was 4.46 µM; in the assay with MDA-MB-435, 5.37 µM; with OVCAR-8 ovarian it was 15.8 µM; in the assay with NCI-H522 lung, 3.69 µM; with MOLT-4 leukemia, 2.1 µM. Moreover, the GI50 is 1.59 µM in the assay on SR leukemia, 2.33 µM in the assay on UACC-257 melanoma, 1.31 µM in the assay with SNB-75 CNS and 4.47 µM with COLO 205 colon. Further, the TGI with SF-295 CNS amounted to 21.5 µM; in the assay on 786-0 renal, 17 µM; with MDA-MB-435, 18.4 µM; in the assay with OVCAR-8 ovarian it was 36.1 µM; in the assay on NCI-H522 lung, 14.7 µM; with MOLT-4 leukemia, 7.06 µM. For the same molecule, the TGI with SR leukemia amounted to 4.95 µM; in the assay on UACC-257 melanoma it was 4.79 µM; in the assay on SNB-75 CNS, 4.89 µM; with COLO 205 colon, 16.9 µM.

`COc1cc2c3c(n(CCCn4cccn4)c(=O)c2cc1OC)-c1cc2c(cc1C3=O)OCO2`: the GI50 in the assay with SF-295 CNS is 0.581 µM; with 786-0 renal, 0.429 µM; in the assay with MDA-MB-435 it was 6.23 µM; in the assay on OVCAR-8 ovarian, 2.83 µM; in the assay with NCI-H522 lung, 2.07 µM; in the assay with MOLT-4 leukemia it was 0.351 µM. The GI50 with SR leukemia was 0.0465 µM; in the assay on UACC-257 melanoma, 9.92 µM; with SNB-75 CNS it was 1.53 µM; with COLO 205 colon, 5.25 µM. Besides, the TGI is 32 µM in the assay on SF-295 CNS; 2.76 µM in the assay on 786-0 renal; 39.2 µM with MDA-MB-435; 54.7 µM in the assay with OVCAR-8 ovarian; 63.7 µM in the assay on NCI-H522 lung; over 35.9 µM in the assay with MOLT-4 leukemia. The TGI with SR leukemia is 1.57 µM; in the assay with UACC-257 melanoma it was over 100 µM; in the assay with SNB-75 CNS, 15.4 µM; in the assay on COLO 205 colon, over 100 µM.

`CN1CCN(c2ccc3nc(-c4ccc5nc(-c6ccc(C(F)(F)F)cc6)[nH]c5c4)[nH]c3c2)CC1`: the GI50 was 2.44 µM in the assay on SF-295 CNS; 3.3 µM in the assay with 786-0 renal; 1.66 µM in the assay on MDA-MB-435; 2.02 µM in the assay on OVCAR-8 ovarian; 1.47 µM in the assay with NCI-H522 lung; 2.33 µM with MOLT-4 leukemia. Also, the GI50 in the assay on SR leukemia is 1.7 µM; in the assay on UACC-257 melanoma, 1.75 µM; with SNB-75 CNS, 1.87 µM; with COLO 205 colon it was 1.37 µM. The TGI worked out at 9.51 µM in the assay on SF-295 CNS; 12.7 µM in the assay with 786-0 renal; 3.1 µM in the assay with MDA-MB-435; 4.7 µM with OVCAR-8 ovarian; 3.39 µM in the assay with NCI-H522 lung; 4.96 µM in the assay on MOLT-4 leukemia. Also, the TGI in the assay with SR leukemia turned out to be 5.11 µM; in the assay on UACC-257 melanoma, 3.42 µM; in the assay on SNB-75 CNS, 9.97 µM; in the assay with COLO 205 colon, 2.93 µM.

In the case of `N#C/C(=C/c1cccs1)c1cccs1`, the GI50 in the assay with SF-295 CNS, in the assay on 786-0 renal, in the assay with MDA-MB-435, with OVCAR-8 ovarian, with NCI-H522 lung and in the assay with MOLT-4 leukemia was over 100 µM each time. The GI50 in the assay with SR leukemia, with UACC-257 melanoma, in the assay with SNB-75 CNS and in the assay with COLO 205 colon was over 100 µM throughout. Also, the TGI in the assay with SF-295 CNS, with 786-0 renal, with MDA-MB-435, in the assay with OVCAR-8 ovarian, with NCI-H522 lung and with MOLT-4 leukemia was over 100 µM throughout. The TGI in the assay on SR leukemia, in the assay with UACC-257 melanoma, in the assay with SNB-75 CNS and in the assay on COLO 205 colon was over 100 µM each time.

`COc1ccccc1NC(=O)N/C(N)=N/c1nc2ccccc2s1`: the GI50 in the assay on SF-295 CNS is 0.0418 µM; with 786-0 renal it was 0.288 µM; with MDA-MB-435 it was 0.0211 µM; in the assay on OVCAR-8 ovarian it was 0.262 µM; in the assay on NCI-H522 lung, 0.025 µM; with MOLT-4 leukemia it was 0.162 µM. Moreover, the GI50 in the assay on SR leukemia was 0.0228 µM; in the assay on SNB-75 CNS, 0.0556 µM; with COLO 205 colon, 0.254 µM. For the same molecule, the TGI with 786-0 renal is over 100 µM; in the assay with MDA-MB-435, 0.0692 µM; with OVCAR-8 ovarian, over 100 µM; with MOLT-4 leukemia it was over 100 µM; in the assay on SR leukemia, over 100 µM; with UACC-257 melanoma, over 100 µM. The same molecule returned a TGI with COLO 205 colon of over 100 µM.

Consider `COc1ccc(-n2nc(C)c3c(Nc4ccc(NC(=O)Nc5cc(C(F)(F)F)ccc5F)cc4)ncnc32)cc1`, for which the GI50 with SF-295 CNS is 2.06 µM; in the assay on 786-0 renal it was 2.04 µM; in the assay on MDA-MB-435, 2.44 µM; in the assay with OVCAR-8 ovarian, 2.36 µM; with NCI-H522 lung, 1.94 µM; in the assay with MOLT-4 leukemia, 2.69 µM. In addition, the GI50 is 2.87 µM in the assay with SR leukemia, 1.99 µM in the assay with UACC-257 melanoma, 1.21 µM with SNB-75 CNS and 1.98 µM with COLO 205 colon. The TGI with SF-295 CNS was found to be 4.43 µM; with 786-0 renal, 5.2 µM; in the assay with MDA-MB-435, 6.51 µM; in the assay on OVCAR-8 ovarian it was 6.16 µM; in the assay with NCI-H522 lung, 4.95 µM; with MOLT-4 leukemia, 12.1 µM. In addition, the TGI in the assay on SR leukemia is over 100 µM; with UACC-257 melanoma, 4.42 µM; in the assay with SNB-75 CNS, 7.84 µM; in the assay with COLO 205 colon it was 4.93 µM.
